Measured values as given in patent US10172875B2, “Therapeutic combinations comprising anti-FOLR1 immunoconjugates” (ImmunoGen, Inc., priority 2015, dated 2019).
Like-named read-outs stand apart in the source and are kept apart here.

What was measured:
[1] = system: IGROV-1 cells; experiment: Cell cycle analysis, IMGN853 and carboplatin (FIG. 9B); assay type: cell-based; details: carboplatin 20 μM, IMGN853 8 nM, alone or combined, 6 hours, then 24 hour drug-free medium
Description: Cells were washed, and cell cycle distribution determined following 24 hour culture in drug-free medium.

[2] = system: platinum-sensitive ovarian cancer patient derived xenografts (PDXs); experiment: IMGN853 and carboplatin, single administration, in platinum-sensitive ovarian cancer PDX (FIG. 9D); assay type: in vivo, SCID mice; details: single administration: IMGN853 2.5 mg/kg and/or carboplatin 80 mg/kg; day 39
Description: Data are expressed as mean and standard error of the mean (SEM) for each time point.
To examine whether these in vitro cellular effects translated to improved efficacy in vivo, mice bearing patient-derived xenografts (PDX) obtained from an individual with EOC were treated with IMGN853 and carboplatin, both as single agents and in combination (FIG. 9D). […] Animals received a single administration of IMGN853 (2.5 mg/kg) or carboplatin (80 mg/kg), and each regimen inhibited tumor growth as monotherapy (T/C values of 43% and 20% on day 39, respectively).

[3] = system: OV90 serous ovarian tumor xenografts; experiment: Antitumor activity of IMGN853, cediranib and combination in OV90 tumor model (Example 9); assay type: in vivo, SCID mice; details: IMGN853 2.5 mg/kg 1× and/or cediranib 1.5 mg/kg qd×5
Excerpt: The term “respond favorably” generally refers to causing a beneficial state in a subject. With respect to cancer treatment, the term refers to providing a therapeutic effect on the subject. Positive therapeutic effects in cancer can be measured in a number of ways (See, W. A. Weber, J. Nucl. Med. 50:1S-10S (2009)). For example, tumor growth inhibition, molecular marker expression, serum marker expression, and molecular imaging techniques can all be used to assess therapeutic efficacy of an anti-cancer therapeutic. Log10 Cell Kill (LCK) can be used to quantify the tumor cell kill. Log10 cell kill (LCK) is calculated with the formula LCK=(T−C)/Td×3.32, where (T−C) (or tumor growth delay (TGD)) is the median time (in days) for the treatment group and control group tumors to reach a predetermined size (tumor-free survivors excluded). Td is the tumor doubling time (estimated from nonlinear exponential curve fit of daily median of control tumor growth), and 3.32 is the number of cell doublings per log of cell growth. The ability to reduce tumor volume may be assessed, for example, by measuring a % T/C value, which is the median tumor volume of treated subjects divided by the median tumor volume of the control subjects. With respect to tumor growth inhibition, according to NCI standards, a T/C≤42% is the minimum level of anti-tumor activity. A T/C<10% is considered a high anti-tumor activity level, with T/C (%)=Median tumor volume of the treated/Median tumor volume of the control×100. A favorable response can be assessed, for example, by increased progression-free survival (PFS), disease-free survival (DFS), or overall survival (OS), complete response (CR), partial response (PR), or, in some cases, stable disease (SD), a decrease in progressive disease (PD), a […] time to progression (TTP), a decrease in CA125 in the case of ovarian cancer, or any combination thereof.

[4] = system: OV90 serous ovarian tumor xenografts; experiment: Antitumor activity of IMGN853 (1.25 mg/kg), paclitaxel, bevacizumab and combinations in OV90 tumor model (Example 4); assay type: in vivo, SCID mice; details: single doses: IMGN853 1.25 mg/kg, paclitaxel 10 mg/kg, bevacizumab 5 mg/kg; for T/C: alone or combined; for CR: responders/animals
Description: Mice were randomized into groups (n=8 per group) by tumor volume and subsequently dosed on Day 14 post-inoculation. All treatments consisted of single doses (1×).
Tumor volumes were measured one to two times weekly in three dimensions using a caliper. […] Body weights were measured twice per week as an index of toxicity.

[5] = system: ST088 human epithelial ovarian cancer (EOC) patient-derived tumor xenografts; experiment: Antitumor activity of IMGN853, bevacizumab, paclitaxel and combinations in ST088 tumor model (Example 6); assay type: in vivo, SCID mice; details: QWx2: IMGN853 5 mg/kg, bevacizumab 5 mg/kg, paclitaxel 10 mg/kg; for T/C: alone or combined; for CR / PR: responders/animals
Description: Tumor volumes were measured twice weekly in three dimensions using a caliper.

[6] = system: OV90 serous ovarian tumor xenografts; experiment: Antitumor activity of IMGN853 (2.5 mg/kg), bevacizumab and combination in OV90 tumor model (Example 3); assay type: in vivo, SCID mice; details: IMGN853 2.5 mg/kg 1× and/or bevacizumab 5 mg/kg 1×
Excerpt: FIG. 2B depicts the results.

[7] = system: OV-90 xenografts; experiment: Fractionated bevacizumab dosing with IMGN853 in OV-90 xenografts (FIG. 11A); assay type: in vivo, mice; details: IMGN853 3 mg/kg; bevacizumab single 5 mg/kg dose or two 2.5 mg/kg doses (QWx2); monotherapy or combination
[8] = system: platinum-resistant ovarian cancer PDXs; experiment: IMGN853 with bevacizumab in platinum-resistant ovarian cancer PDX, 102-day study (FIG. 11B); assay type: in vivo, mice
Excerpt: Tumor growth was monitored out to 102 days. * P=0.011; ** P=0.018; ns, not significant (Wilcoxon test, non-adjusted).

[9] = system: IGROV-1 ovarian tumor xenografts; experiment: Antitumor activity of IMGN853, bevacizumab and combination in IGROV-1 tumor model (Example 5); assay type: in vivo, SCID mice; details: IMGN853 5 mg/kg 1× and/or bevacizumab 5 mg/kg 1×
Excerpt: (§1) All treatments consisted of single doses (1×).
FIG. 4 depicts the results.

[10] = system: OV-90 xenografts; experiment: OV-90 tumors harvested 4 days post-dosing: histology, γH2AX, CD31, anti-maytansine (FIGS. 12A-12C); assay type: in vivo, mice; details: IMGN853 2.5 mg/kg and/or bevacizumab 5 mg/kg; day 4
Description: Original magnification, 4×; scale bars, 2 mm (for Combination panel, 600 μm).
For each group, representative micrographs from one of three tumors are shown. Original magnification, 20×; scale bars, 200 μm.
Next, as a pharmacodynamic readout, tumor γH2AX levels were measured by immunoblotting (FIG. 12B).
While genotoxic insults are the primary inducers of γH2AX, accumulation of this protein can also occur in response to hypoxia. […] In order to examine treatment-related effects on microvessels, immunohistochemical staining with the endothelial cell marker CD31 was performed (FIG. 12C, upper panel).

[11] = system: OV90 serous ovarian tumor xenografts; details: IMGN853 5 mg/kg 1× and/or bevacizumab 5 mg/kg 1×
Description: Mice were randomized into groups (n=6 per group) by tumor volume and subsequently dosed on Day 14 post-inoculation.
Tumor volumes were measured one to two times weekly in three dimensions using a caliper. The tumor volume was expressed in mm^3 using the formula V=Length×Width×Height×½ (Tomayko and Reynolds, Cancer Chemother. Pharmacol. 24:148-54 (1989)) Body weights were measured twice per week as an index of toxicity. Activity was assessed as described in Bissery et al. (1991).

[12] = system: H2110 non-small cell lung cancer (NSCLC) tumor xenografts
Description: Mice were randomized into groups (n=6-10 per group) by tumor volume and subsequently dosed on Day 7 post-inoculation. All treatments consisted of single doses (1×).
Tumor volumes were measured one to two times weekly in three dimensions using a caliper. The tumor volume was expressed in mm^3 using the formula V=Length×Width×Height×½ (Tomayko 1989). Body weights were measured twice per week as an index of test agent toxicity. Activity was assessed as described in Bissery et al. (1991).

[13] = system: OV90 ovarian tumor xenografts; experiment: Antitumor activity of carboplatin doublets and triple-combinations in OV90 tumor model (Example 8); assay type: in vivo, SCID mice; details: single doses: IMGN853 5 mg/kg, carboplatin 100 mg/kg, bevacizumab 5 mg/kg, paclitaxel 10 mg/kg
Excerpt: as §1
FIG. 7 depicts the results.

[14] = system: platinum-sensitive PDX tumors; experiment: Carboplatin doublets QWx2 in platinum-sensitive PDX (FIG. 9E); assay type: in vivo, mice; details: PLD 4 mg/kg or IMGN853 5 mg/kg
Description: The combinatorial benefit conferred by IMGN853/carboplatin treatment was compared with clinically relevant chemotherapeutic combinations in the same PDX model. Tumor-bearing animals received two consecutive weekly doses (QWx2) of carboplatin (80 mg/kg, i.p.) in combination with i.v. paclitaxel (10 mg/kg), PLD (4 mg/kg), or IMGN853 (5 mg/kg). As expected, treatment with the carboplatin-paclitaxel doublet was efficacious in this model of platinum sensitivity (FIG. 9E). […] The higher incidence of CRs was strongly indicative of a better durability of response for the combination, and overall the data further supports the combination of IMGN853 with carboplatin for improving response to platinum therapy in EOC.

[15] = IMGN853 3 mg/kg 1× and/or bevacizumab 5 mg/kg 1×
[16] = IMGN853 3 mg/kg 1× and/or bevacizumab 5 mg/kg 1×, responders/animals

## N.N.O=C([O-])C1(C(=O)[O-])CCC1.[Pt+2] [carboplatin, reference compound]
[1]
  cell cycle distribution: accumulation of IGROV-1 cells in both the S and G2/M phases
[2]
  T/C: 20%

## COc1cc2c(Oc3ccc4[nH]c(C)cc4c3F)ncnc2cc1OCCCN1CCCC1 [cediranib, reference compound]
[3]
  T/C: 80%
  antitumor activity rating: inactive
[3]; Log10 cell kill
  LCK: 0.1
[3]; responders/animals
  PR: 0/6
[3]; tumor growth delay
  T−C: 4 days

## CC(=O)O[C@H]1C(=O)[C@@]2(C)[C@H]([C@H](OC(=O)c3ccccc3)[C@]3(O)C[C@H](OC(=O)[C@H](O)[C@@H](NC(=O)c4ccccc4)c4ccccc4)C(C)=C1C3(C)C)[C@]1(OC(C)=O)CO[C@@H]1C[C@@H]2O [paclitaxel]
[4]
  TFS: 0/6
  antitumor activity rating: inactive
  T/C: 94%
  CR: 0/6
[5]
  antitumor activity rating: inactive
  T/C: 71%
  CR: 0/8
  PR: 0/8

## bevacizumab: recombinant humanized monoclonal IgG1 anti-VEGF antibody; active ingredient in Avastin [reference compound]
[6]
  T/C: 31%
  TFS: 0/6
  antitumor activity rating: active
[6]; responders/animals
  CR: 0/6
[7]
  antitumor effect: Split-dosing had no effect
[8]; 5 mg/kg QWx2, over the course of a 102-day study
  CRs: no CRs
[8]; IMGN853 5 mg/kg QWx2, bevacizumab 5 mg/kg QWx2, alone or combined
  antitumor effect: prolonged growth control
[4]
  TFS: 0/8
  antitumor activity rating: active
  T/C: 22%
  CR: 0/8
[9]
  T/C: 51%
  TFS: 0/4
  antitumor activity rating: inactive
[9]; responders/animals
  CR: 0/4
[5]
  antitumor activity rating: highly active
  T/C: 6%
  CR: 0/8
  PR: 0/8
[10]
  tumor microvessels, CD31 immunohistochemical staining: decreased in size and showed loss of luminal integrity
[11]
  T/C: 37%
  antitumor activity rating: active
  tumor free survivors (TFS): 0/6
[11]; responders/animals
  CR: 0/6
[12]; [15]
  T/C: 22%
  TFS: 0/6
  antitumor activity rating: active
[12]; [16]
  CR: 0/6
  PR: 0/6
[12]; bevacizumab 5 mg/kg monotherapy, Day 49 post-inoculation
  body weight loss: 9%

## paclitaxel+carboplatin
[13]
  T/C: 45%
  TFS: 0/6
  antitumor activity rating: inactive
  body weight loss (BWL) at nadir: 11.1%
[13]; responders/animals
  CR: 0/6
[14]; QWx2: carboplatin 80 mg/kg i.p. with i.v. paclitaxel 10 mg/kg
  antitumor effect: efficacious
[14]; QWx2: carboplatin 80 mg/kg i.p. with paclitaxel 10 mg/kg
  tolerability: well tolerated
[14]; QWx2: carboplatin 80 mg/kg i.p. with paclitaxel 10 mg/kg, n=7 mice/group
  complete regressions (CR): none
